From article PMC12454639, “Direct disassembly of α-syn preformed fibrils into α-syn monomers by an all-D-peptide” (NPJ Parkinson's Disease, 2025) come the findings set out here.

Data set [1] concerns recombinant full-length α-syn. As to the kind of experiment: De novo ThT aggregation screening assay (50 µM α-syn). It is filed as biochemical. On the procedure: The Thioflavin T (ThT) assay is commonly used for the visualization of α-syn fibrilization, since the dye ThT is able to bind to the amyloidogenic cross-β-sheet proportions of fibril structures. Recombinant α-syn was thawed on ice and centrifuged for 30 min at 21,000 × g and 4 °C. The concentration of the supernatant was determined as described previously. Lyophilized D-peptides were thawed at RT for 1 h and dissolved in 500 µl PBS pH 7.4. After centrifugation for 30 min at 21,000 × g the supernatant concentration was determined by UV–vis using the corresponding extinction coefficient at A280. All ThT assay experiments were performed at 37 °C with 15 µM ThT and 0.05% sodium azide (w/v) in PBS pH 7.4 if not otherwise stated. ThT fluorescence was monitored with bottom optics at λex = 448 nm and λem = 482 nm in a fluorescence plate reader with orbital averaging on 3 mm (Clariostar or Polarstar Optima, BMG labtech, GE). […]
ThT assay was used for different purposes. […] Lag-time and t½ were calculated as described previously. […]
Monomeric α-syn (Supplementary Fig. 3) was incubated with or without a 3-fold molar excess of the D-peptides. […] The ThT positive aggregation was fitted with a symmetric Boltzmann fit and t ½- and lag-time were calculated accordingly. […] ThT fluorescence progression was measured in a 96-well non-binding half-area with a FLUOStar plate reader at λex = 448 nm and λem = 482 nm. […]

Data set [2] addresses T1, α-syn monomer (full-length) (Homo sapiens, UniProt P37840).
T1 construct: made in house; host or cells: E. coli BL21(DE3), co-expressed with pNatB (N-terminal acetylation enzyme from Schizosaccharomyces pombe)
As to the kind of experiment: SPR single-cycle kinetics, peptide immobilized, α-syn as analyte. The conditions noted are these: for deviation from 1:1 model (additional binding mode): suggested from deviation of fits for later injections. It counts as binding. The procedure: The experiment was performed as an individual measurement. […] The non-referenced signal of the active and referenced surface is shown in Supplementary Fig. 7. […] Full-length α-syn was injected for 100 s at 30 µl/min in PBS 7.4 in a serial dilution ranging from 15 to 250 nM, followed by a dissociation time of 60 min. Y-axis scaling was adjusted to (A).
Measurements were performed using an 8K Biacore device (Cytiva, USA). Interactions were measured using single-cycle kinetics experiments. For all assays, the peptide compounds were immobilized as ligand on the sensor surface and recombinant α-syn was injected as analyte in the flow. […] Surface quenching was performed using 1 M ethanolamine, pH 8.3. The kinetic experiments were performed using a flow rate of 30 µl/min in PBS pH 7.4 if not otherwise stated. The surface was regenerated in between cycles using 30 s injections of 2 M Gua-HCl at 30 µl/min. Data evaluation was performed using Biacore Insight Evaluation Software v3.0 (Cytiva, USA).

Data set [3] has as its system 15N-labeled full-length acetyl-α-syn. As to the kind of experiment: 1H-15N HSQC NMR. It is filed as binding. The procedure: Samples were prepared at final concentrations of 25 µM ^15N-labeled full-length acetyl-α-syn in the absence (reference) and presence of an equimolar amount of SVD-1a (not isotopically labeled, thus NMR-invisible) in PBS buffer, pH 7.4, with an addition of 5% D2O for internal reference. 2D 1H-15N HSQC spectra were recorded back-to-back, on a Bruker AVANCE NEO spectrometer (Bruker, USA) operating at 1200 MHz proton Larmor frequency. The experimental temperature was 10 °C. Spectral dimensions were 16.02 ppm (^1H) x 30 ppm (^15N), with 2048 points in the ^1H dimension and 256 increments in the ^15N dimension, resulting in an acquisition time of 53 ms for the ^1H dimension and 35 ms for the ^15N dimension. For each increment, 32 scans were recorded, with a recovery delay of 1 s between scans, resulting in an overall experimental time of […] per spectrum.
NMR data sets were processed using the Bruker TopSpin software (version 4.1.1) and visualized using CcpNmr Analysis (v2.4.2)[59]. For the assessment of chemical shift changes of α-syn resonances in the presence of SVD-1a relative to the reference spectrum (without SVD-1a), peak positions were extracted using the CcpNmr Analysis software. From the residue-specific chemical shift changes in the ^1H and ^15N dimensions, an absolute chemical shift change, Δδ, was calculated using the formula Δδ = 0.5δH2+0.14δN2 [60]. […]

Each structure is given as a SMILES string. Square brackets hold non-standard residues; d marks the D form. Peptide text beside a SMILES is read from it.

Consider `CC[C@@H](C)[C@@H](NC(=O)[C@@H](Cc1c[nH]cn1)NC(=O)[C@@H](CCC(=O)O)NC(=O)[C@@H](CCC(N)=O)NC(=O)[C@@H](Cc1c[nH]c2ccccc12)NC(=O)[C@@H](Cc1ccc(O)cc1)NC(=O)[C@H](NC(=O)[C@@H](CCC(=O)O)NC(=O)[C@@H](Cc1c[nH]cn1)NC(=O)[C@H](NC(=O)[C@H]1CCCN1C(=O)[C@@H](CCSC)NC(=O)[C@H](N)CCCCN)[C@H](C)O)[C@H](C)O)C(=O)N[C@H](Cc1c[nH]c2ccccc12)C(=O)N[C@H](Cc1c[nH]cn1)C(=O)N[C@H](C)C(N)=O` [SVD-1] (H-[dK][dM][dP][dT][dH][dE][dT][dY][dW][dQ][dE][dH][dI][dW][dH][dA]-NH2), for which the “effect on α-syn aggregation, concentration dependency” value in data set [1] (50 µM α-syn with 50, 150 or 250 µM D-peptide, PBS pH 7.4, n = 5) is “most efficient”. In addition, the “effect on α-syn aggregation (t½ and lag-time)” value in data set [1] (50 µM α-syn, 3-fold molar excess peptide, PBS pH 7.4, 37 °C, shaking 300 rpm 30 s per cycle, n = 3) is “delayed α-syn aggregation”. Also, the “deviation from 1:1 model (additional binding mode)” value in data set [2] is recorded as “additional low-affinity binding mode in the higher nM range”.
With `CC[C@@H](C)[C@@H](NC(=O)[C@@H](Cc1c[nH]cn1)NC(=O)[C@@H](CCC(=O)O)NC(=O)[C@@H](CCC(N)=O)NC(=O)[C@@H](Cc1c[nH]c2ccccc12)NC(=O)[C@@H](Cc1ccc(O)cc1)NC(=O)[C@H](NC(=O)[C@@H](CCC(=O)O)NC(=O)[C@@H](Cc1c[nH]cn1)NC(=O)[C@H](NC(=O)[C@H]1CCCN1C(=O)[C@@H](CC(C)C)NC(=O)[C@H](N)CCCNC(=N)N)[C@H](C)O)[C@H](C)O)C(=O)N[C@H](Cc1c[nH]c2ccccc12)C(=O)N[C@H](Cc1c[nH]cn1)C(=O)N[C@H](C)C(=O)N[C@H](CCCNC(=N)N)C(=O)N[C@H](CCCNC(=N)N)C(=O)N[C@H](CCCNC(=N)N)C(=O)N[C@H](CCCNC(=N)N)C(=O)N[C@H](CCCNC(=N)N)C(N)=O` [SVD-1a] (H-[dR][dL][dP][dT][dH][dE][dT][dY][dW][dQ][dE][dH][dI][dW][dH][dA][dR][dR][dR][dR][dR]-NH2), the “NMR chemical shift changes of α-syn” value in data set [3] (25 µM 15N-α-syn + 25 µM SVD-1a, PBS pH 7.4, 10 °C, 1200 MHz) was “the chemical shift changes are very small, with most residues showing significant chemical shift changes located in the C-terminal region”. Also, the “precipitation of α-syn in NMR sample” value in data set [3] (25 µM α-syn with 25 µM SVD-1a, 4.8 h at 10 °C) is “did not yield any signs of signal loss due to precipitation”. Also, in data set [2], binding was put at a Kd of 0.1 nM and the “deviation from 1:1 model (additional binding mode)” value is on record as “additional low-affinity binding mode in the higher nM range”. This compound also returned a koff in data set [2] (1:1 Langmuir-based model, immobilized peptide, α-syn analyte, PBS pH 7.4, dissociation 60 or 30 min, individual measurement) of 3.13e-05 s⁻¹. In addition, in data set [2] (1:1 Langmuir-based model, immobilized peptide, α-syn analyte, PBS pH 7.4, individual measurement), the on-rate (kon) stood at 313000 M⁻¹ s⁻¹. Besides, the “sequence specificity of binding” value in data set [2] (comparison of SVD-1a and SVD-1a_scr.+5r) is listed as “sequence-specific”.

One may read the Kd as the equilibrium constant for the complex coming apart. By koff is commonly meant the first-order rate constant of dissociation. The kon is the rate constant with which the complex forms.
